This note sets out measurements from patent US11168052B2, “Carbamate derivative compounds, processes for preparing them and their uses” (BIO-PHARM SOLUTIONS CO., LTD., priority 2016, dated 2021).

Where only a bound is given, the exact number is not on record here.

The test system of test [1] is CFA-induced pain model in rats. The test can be described thus: Antiallodynic activity on Complete Freund's Adjuvant (CFA)-induced inflammatory pain model. The test is classed as in vivo, Sprague-Dawley rats. The settings on record: Rattus norvegicus, ip, 50 mg/kg intraperitoneally, von Frey threshold relative to sham, 0.5 hr after administration, read-out: Efficacy of 50 mg/kg(%). The protocol:
Male, Sprague-Dawley rats (210-250 g, Nara Bio, Korea) were habituated for 1 week before surgery and allowed free access to food and water throughout the experimentation. Room temperature and humidity were maintained at 24±2 and 50±10%, respectively.
CFA-induced inflammatory pain was induced by the procedure of Nagakura et al. (2003) and Gregory P. et al. (2010) with minor modifications. CFA (sigma, USA) was injected in the right plantar with a 100 ul volume under gaseous anesthesia with isoflurane. Sham controls were injected with 100 ul of saline, and preparation of the vehicle controls were identical to the group treated with compound, except for administration of vehicles without indentical to the vihecle control group.
Tactile sensitivity (Mechanical allodynia) was evaluated using von Frey monofilaments before and after treatment, and animals were include in the study only if the withdrawal threshold value was less than 4 g. One week after CFA injection, CFA-infused animals, sham-operated animal, and vehicle-operated animals were tested for tactile sensitivity with von Frey monofilaments, with 3 trials for each animal. All Animals were placed in a stainless steel mashe chamber and habituated for 30 min in the test cage. The tactile sensitivity for ipsilateral hind paw was measured using the up-and-down method (Dixon, 1980) with seven von Frey monofilaments (0.4, 1, 2, 4, 6, 8, and 15 g) to 3 trials. The tactile sensitivity test was followed by Dixon's method (Dixon, 1980). The 50% paw withdrawal threshold for each paw was calculated using the following formula: [Xth]log=[vFr]log+ky where [vFr] is the force of the last von Frey used, k=0.2249 which is the average interval (in log units) between the von Frey monofilaments, and y is a value that depends upon the pattern of withdrawal responses (Dixon, 1980).
Antiallodynic effect of compounds was evaluated at the dose of 50 mg/kg (n=4-6), intraperitoneally administrated in a volume of 5 ul/g bw in a vehicle of 30% (v/v) PEG or 20% (v/v) Tween 80. The test was performed peak time of efficacy (0.5 hr) after compound administration.
The relative values compared to the sham (% control) were calculated and shown in Table 5, which show an antiallodynic effect of Compound 1 on CFA-induced pain model in rats.

The test system of test [2] is MES (electroshock) seizure in mice. The test can be described thus: Anti-epilepsy activity, MES test in mouse. The test is classed as in vivo, ICR mice. The settings on record: po. The protocol: (§1) In the MES test (Ref., G. Villetti et al. Neuropharmacology 40(2001) 866-878), an electrical stimulus (mice: 50 mA, 60 Hz, 0.2 sec, and rats: 150 mA, 60 Hz, 0.2 sec in the test animal) supplied by an 11A Shocker (IITC Life Science Company) was delivered through corneal electrodes. All mice or rats assigned to any electroshock at peak time were treated with each test compound sample which was dissolved in 20% tween 80 prepared by saline solvent applied orally before the test. […] Three doses of the test sample were administered orally to 9-18 animals (3-6 mice per dose) for evaluating the respective doses at which 50% of the animals were protected from seizure (ED50). The ED50 value (median effective dose) was calculated by Litchfield and Wicoxon log-probit method which is a dose-response relationship. Experimental animals, male ICR mice and male SD rats, were purchased from OrientBio, Samtako, or Nara Biotech, Korea, and housed in cages (4-5 mice or 3 rats per cage) for 4-5 days. The range of mice body weight was between 19 and 25 grams and range of rats body weight was between 100 and 130 grams.

The test system of test [3] is MES (electroshock) seizure in rats. The test can be described thus: Anti-epilepsy activity, MES test in rats. It is filed as in vivo, SD rats. The note with it: Rattus norvegicus, po. The protocol: as §1
Test [4] relates to PTZ (Pentylenetetrazol)-induced clonic seizure in mice. The test can be described thus: Anti-epilepsy activity, scPTZ test in mouse. The test is classed as in vivo, ICR mice. The settings on record: ip. The source says: (§2) In this experiment, each test compound sample was formulated as described in Biological Experimental Example 1, and administered intraperitoneally to the test animals (mice; ICR or Rat; SD); Experimental animals, male ICR mice and male SD rats, were purchased from OrientBio or Nara biotech, Korea, and housed 4-5 mice per a cage for 4-5 days. The range of mice body weight was used between 19 and 26 grams and range of rats body weight was used between 100 and 130 grams. After Peak time (0.5, 1, 2 and 4 hr) from the administration, PTZ (Pentylenetetrazol) was administered subcutaneously in the concentration capable of inducing 97% intermittent convulsions (mice: 100-110 mg/kg?bw, 10 μl/g, or rats: 90-110 mg/kg?bw, 2 μl/g). If clonic seizure was not observed for at least 30 minutes in the PTZ administered animal, it can be considered that the test compound has anti-epilepsy activity. The median effective dose (ED50) is determined using 6 animals per a concentration (total three different concentrations), and calculated by Litchfield and Wicoxon log-probit method which is a dose-response relationship.

The subject of test [5] is PTZ (Pentylenetetrazol)-induced clonic seizure in rats. Briefly: Anti-epilepsy activity, scPTZ test in rats. It is filed as in vivo, SD rats.
Source text: as §2

For test [6], the system named is Lithium-pilocarpine induced seizure in rats. The test can be described thus: Lithium-pilocarpine induced epilepsy test (LI-PILO), prevention test. The settings on record: Rattus norvegicus, ip, prevention, read-out: Lithium pilocarpine model (pre) ED50. It is filed as in vivo, Sprague-Dawley rats. The protocol: Male Sprague-Dawley rats (purchased from Orient Bio Inc. Korea) of body weight 175 grams were used for these studies and 3 rats per cage were housed for 4-5 days. On the day prior to SE, rats received 127 mg/kg lithium chloride (Sigma, St. Louis, Mo., U.S.A.) intraperitoneally (i.p.). Approximately 18-20 h following this treatment, rats were given an i.p. injection of the concentration capable of inducing 97% intermittent convulsions pilocarpine(Sigma, 30-43 mg/kg). An i.p. injection of 2 mg/kg methyl-scopolamine (Sigma) was administered 30 min prior to pilocarpine to block the effects of the muscarinic agonist on peripheral cholinergic receptors. Test drugs were dissolved in 20% tween80 (Sigma).
The drugs were administered intraperitoneally (i.p.) in a volume of 2 μl/g body weight. Pharmacological effects of all of the test materials were evaluated to compare test groups (n=6) with a control group (n=6). Control group was administered vehicle only. The efficacy was measured 0.5, 1, 2, or 4 hours after the administration of the test material. The time point that the most animals were protected was defined as peak time and the ED50 was determined at peak time. The animals were then transferred to observation cages and observed continuously for 90 min Seizure was elicited in approximately 95% of the control group. Protection was defined as complete absence of seizure grade 3-5 (Racine scale; Racine, 1972) over the 90-min observation period. The effective dose of the compound necessary to protect 50% of the animals against seizures compared to controls (i.e., ED50) was determined by a curve fitting program (Excel 2007, Microsoft).

Test [7] relates to Picrotoxin (PIC)-induced clonic seizure in mice. The test can be described thus: Chemical induced seizure model (PIC). It is filed as in vivo, ICR mice. The note with it: mice, dose 50 mg/kg. The protocol: Picrotoxin (PIC) were used to induce the behavioral seizures in the experiments. Male ICR mice (purchased from Orient Bio Inc. Korea) of body weight 19-26 g (mice) were used for these studies. The test materials were administered intraperitoneal (ip) route in a volume of 10 ul/g (mice) weight in rats or mice, respectively. Pharmacological effects of the test materials were evaluated to compared test groups (n=6) with a control group (n=6). Control group was administrated vehicle, only. The peak time was determined by administration of test material's random dose for 0.5, 1, 2, 4 hour. The time that the most protect was defined as a peak time and ED50 was determined by other dose administration at the peak time. Chemical (PIC) was dissolved in 0.9% saline and administered subcutaneously (s.c.) at its CD97 (convulsive dose 97%), the dose of Chemical (PIC) that produced clonic seizures in 97% into a loose fold of skin in the midline of the neck in a volume of 10 ul/g (mice) body weight. The animals were then transferred to observation cages and observed continuously for 45 min. Clonic seizure was elicited in approximately 97% of control group. Protection was defined as a complete absence of clonic seizure over the 45-min observation period. The effective dose of compound necessary to protect against generalized convulsive seizures to 50% of controls (i.e., ED50) was determined by log probit analysis using SPSS software program (SPSS Inc.). (Reference; White H. S., J. H. Woodhead, K. S. Wilcox, J. P. Stables, H. J. Kupferberg, and H. H. Wolf. General Principles; Discovery and Preclinical Development of Antiepileptic Drugs. In: R. H. Levy, R. H. Mattson, B. S. Meldrum, and E. Perucca, eds. Antiepileptic Drugs, 5th Ed. Lippincott Williams & Wilkins, Philadelphia 2002: pp. 36-48.) The obtained results are shown in following Table 10.

Another test has as its system ICR mice on hot plate. Briefly: Hot-plate test. It is filed as in vivo. The note with it: Mus musculus, po, orally, withdrawal latency. The protocol: To examine the pain relief effect of the carbamate compounds, a hot-plate test was conducted in referring to Current Protocols in Neuroscience; Behavioral Neuroscience Unit 8.9.
ICR mice (male, 25-28 g; Orient Bio, Korea) were habituated before test (in test room) for 1 hour. Animals were fasted 2 hr before administration of compounds. Compounds were orally administered at the three dose, 10 ul/g, by bodyweight (n=4-6/group). All compounds were dissolved in a vehicle of 30% (v/v) PEG 400 or 20% (v/v) Tween 80. The control group was treated the vehicle without compounds.
0.25-2.0 hr after the administration of compounds, the mice were put on a hot plate pre-heated to 55±1 (Hu, X. et al, 2008), and then, the withdrawal latency time was measured (cut-off time: 30 sec) until the point when each mouse was taking a paw off from the plate, shaking, licking a paw or hind leg, or jumping from the plate.
In general terms: Hot-plate and tail-flick tests time the reaction to a heat stimulus.

Test [8] has as its system ICR mice, tail-flick analgesia meter. The test can be described thus: Tail-flick test. The test is classed as in vivo. The note with it: orally, withdrawal latency. The protocol: To examine the pain relief effect of the carbamate compounds, a tail-flick test was conducted, referring to Current Protocols in Neuroscience; Behavioral Neuroscience Unit 8.9.
ICR mice (male, 25-30g; Orient Bio, Korea) were habituated before test (in test room) for 1 hour. Animals were fasted 2 hr before administration of compounds. Each of Compound was orally administered at the 1-3 dose, 10 ul/g, by bodyweight (n=4-6/group). All compounds were dissolved in a vehicle of 30% (v/v) PEG 400 or 20% (v/v) Tween 80. The control group was treated the vehicle without compounds.
After the administration of compounds, the mice tail were put on a tail-flick analgesia meter. To avoid tissue damage, maximal exposure time to pain stimuli was restricted to 15 s. The withdrawal latency was measured to the time to the point when each mouse responded. The relative values compared to the control (% control) were calculated.
The relative values compared to the sham were calculated and shown in Table 7, which show effect of the compound of examples on tail-flick test in Mice.

A further test deals with corneally kindled rats. Briefly: Corneal kindling (CK) rat model. It is filed as in vivo, Sprague-Dawley rats. The settings on record: po. The text has this: Male Sprague-Dawley rats (purchased from Orient Bio Inc. Korea) of body weight 85-100 g were used for these studies. The MES test using the electroshock seizure apparatus designed by Rodent Shocker Type221 (Hugo Sachs Elektronik, Germany). The kindled rat models were electrically stimulated (8 mA, 60 Hz, 2 s, corneal electrodes) twice daily for 21 days until stage 5 seizure scored by Racine's scale (Racine, 1972) were evoked. The kindled rats were fasted and adapted to test condition, for at least 1 hour before the administration of test material. The drugs were administered orally (p.o.) in a volume of 4 μl/g body weight. The corneally kindled rat model test is a model for generalized […] seizures or bipolar disorder and identifies the compound which prevents seizure or bipolar disorder spread. The shock level was set at 8 mA, 60 Hz and the duration was set at 2 s. A drop of 0.9% saline was placed in each eye, the electrodes were placed over the eyes, and the shock was administered immediately. Pharmacological effects of the test materials were evaluated to compare the test groups (n=6) with a control group (n=6). Control group was administrated vehicle, only. The peak time was determined by administration test material's random dose for 0.5, 1, 2, 4 hour. The time that the most protect was defined peak time and ED50 was determined by other dose administration at peak time. […]

As usually defined, the ED50 is the midpoint of the dose-response relation.

Consider `NC(=O)O[C@H]1CCc2cccc(Cl)c2[C@H]1O` [Example 2, (1R, 2S)-8-chloro-1-hydroxy-1,2,3,4-tetrahydronaphthalen-2-yl carbamate], for which the response vs control in vivo at 50 mg/kg in test [1] amounted to 23.2%. Also, the ED50 came to 41 mg/kg in test [2]; 11.6 mg/kg in test [3]; 26.6 mg/kg in test [4]; 39.7 mg/kg in test [5] (Rattus norvegicus, ip); 50 mg/kg in test [6]. Moreover, the “PIC(ip) efficacy %” value in test [7] is reported as 50 (66.6%).
As for `NC(=O)O[C@H]1Cc2cccc(Cl)c2[C@H]1O` [Example 52, (1R, 2S)-7-chloro-1-hydroxy-2,3-dihydro-1H-inden-2-yl carbamate], the response vs control in vivo at 50 mg/kg in test [1] came to 34.7%. Moreover, the ED50 in the test on ICR mice on hot plate was 119 mg/kg; in test [2], 24.3 mg/kg; in test [3], 10.9 mg/kg; in test [6], 63 mg/kg. The “Tail-flick test Dose” value in test [8] is on record as >200 mg/kg. Besides, the “scPTZ test (ip) efficacy %” value in test [5] (dose 100 mg/kg) is on record as 100 (33.3%,.
Turning to `NC(=O)O[C@@H]1Cc2cc(Cl)cc(Cl)c2[C@@H]1O` [Example 59, (1S, 2R)-5,7-dichloro-1-hydroxy-2,3-dihydro-1H-inden-2-yl carbamate], the ED50 stood at 56.5 mg/kg in [2] and 21.4 mg/kg in the test on corneally kindled rats.
